We go through 1 substance from PMC6145916, “Interaction of mitochondrial fission factor with dynamin related protein 1 governs physiological mitochondrial function in vivo” (Scientific Reports, 2018).

Where no end group is shown, it is not given here.

In one assay the test system is MFF knockout MEFs. Put plainly: Mitochondrial ROS (MitoSox), MFF knockout MEFs. Type of assay: cell-based, mouse. To be noted: 4 µM P259 daily for three days, vs no peptide; 3 independent experiments, three technical replicates; ns p = 0.23. An excerpt: (§1) Data are of 3 independent experiments with the whiskers calculated by the Turkey method. e. […]
(§2) production in an Mff -dependent manner. Mitochondrial reactive oxygen species production […]
(§3) treatment in each cell line. […]
(§4) determined by an unpaired, two -tailed t test). g. […]
(§5) control (no peptide treatment). Data are mean ± s.e. from 3 independent experiments.
(§6) Mitochondrial reactive oxygen species determination […]
(§7) and 1% penicillin-streptomycin solution (Corning, NY, USA). […]
(§8) and without phenol red. […] After incubation
(§9) HEPES, and without phenol red. […]
(§10) epifluorescence microscope with a 10X objective (Keyence). The Cy5 filter (Keyence) was used to autofocus on the mitochondria plane. […]
(§11) calculated as the average MitoSox signal per cell. […]

Another assay has as its system Mff-Drp1 interaction. Put plainly: Co-immunoprecipitation of Drp1 and Mff from SH-SY5Y cell lysate. Type of assay: cell-based, human. Conditions: 1 µM, 1 hour, relative to TAT-carrier control; n = 3, with 2 replicates.
Another assay relates to wild-type MEFs. Put plainly: Mitochondrial ROS (MitoSox), WT MEFs. Type of assay: cell-based, mouse. To be noted: 4 µM P259 daily for three days, vs no peptide; 3 independent experiments, three technical replicates; *** p <0.001.
Description: as §1, §2, §3, §4, §5, §6, §7, §8, §9, §10, §11

A further assay deals with SH-SY5Y cells. Put plainly: Mitochondrial membrane potential (TMRM), SH-SY5Y. Format: cell-based, human. To be noted: overnight treatment, normalized to no peptide; 3 independent experiments. As for the experimental part: Represented Western blot is cropped from a full blot shown in the Expanded Western Blots section of the Supplementary Information. […] Hoechst 33342 is shown in blue and Tom20 in green (n = 3, 10 images each). Below, quantification of the form factor (degree of branching) and major axis length (length of mitochondria). At least 6,000 mitochondrial fragments were measured for each condition. Mitochondrial reactive oxygen species (ROS) production (MitoSox Red) (c) and mitochondrial membrane potential (TMRM) (d) after overnight treatment with indicated concentrations of peptide or FCCP. Data are from 3 independent experiments per condition normalized to the average no peptide value. (e) Relative mitochondrial ROS (MitoSox Red) signal in GFP positive cells expressing full-length or alanine-substituted P259 at indicated amino acids after two days of transfection. Values are normalized to a GFP empty vector (n = 3, with 3 replicates). […] Data are mean ± s.e.
Following treatment, cells were washed with treatment media.
The Cy5 filter was used to autofocus on the mitochondria plane. […] MitoROS was calculated as the average MitoSox signal per cell. The mitochondrial membrane potential was calculated as the average TMRM signal in the mitochondrial mask. […]
as §11

Assay [1] has as its system Huntington's disease patient-derived fibroblasts. Put plainly: Mitochondrial ROS (MitoSox) in HD patient-derived fibroblasts. Format: cell-based, human. Conditions: indicated peptide concentration daily for three days, normalized to healthy fibroblast control; 3 independent experiments. On the procedure:
(DNM1L) and MFF genes. a.
DNM1L and MFF throughout evolution. NCBI PSI -BLAST was performed for the human […]
corresponding to the human gene. c.
DNM1L and 7/7 isoforms of MFF. d. […]
affect mitochondrial fusion measured by photoconvertible den dra2 protein. Mito -dendra2 […]
The initial image following […]
species production (MitoSox). d.
as §1, §2, §3, §4, §5
Human neuroblastoma SH-SY5Y cells purchased from ATCC were cultured in a 50/50 mixture of […]
using SH-SY5Y cells were carried out in the same growth medium with the exception of using […]
Wild-type and MFF knockout mouse embryonic fibroblast (MEF) cells were generously provided by Professor David Chan. […]
an NCBI protein blast of the P259 sequence ([…]) was performed across the human genome database and the top 75 gene query hits were recorded.7 The orthologs of each available gene were obtained from the Ensembl database.8 Of the resulting 75 human gene hits, 37 had […]
as §11

As for “YGRKKRRQRRRGSGIIQLPEIVVV-NH2 (C-terminus assumed) [P259]”, the “effect on mitochondrial ROS levels, Mff knockout MEFs” value in the assay on MFF knockout MEFs is on record as “insensitive”. The “Mff-Drp1 interactions (co-IP)” value in the assay on Mff-Drp1 interaction is listed as “significant reduction in Mff-Drp1 interactions”. The “mitochondrial ROS production, WT MEFs” value in the assay with wild-type MEFs is listed as “increases mitochondrial ROS”. In addition, the mitochondrial membrane potential result in the assay with SH-SY5Y cells was “mitochondrial depolarization”. Moreover, the “mitochondrial ROS” value in assay [1] was “further increased mitochondrial ROS”.
